Results as given in patent US20080242682A1, “Preventive or Therapeutic Agent for Sleep Disorder” (Takeda Pharmaceutical Company Limited, priority 2004, published 2008).

Experiments:
Macaca fascicularis = test: Experiment 1: sleep electroencephalogram (sleep latency and sleep duration in the night) in monkeys after oral administration; type: in vivo; conditions: female Macaca fascicularis, compound A 0.3 mg/kg, ritanserin 1 mg/kg; for SWS (slow-wave sleep) duration in breakdown of sleep duration / total sleep duration: 12 hours from lights-out to lights-on, drug-treated value; for sleep latency of LS / sleep latency of SWS: before lights-out, drug-treated value (vs vehicle, crossover)
Description: 3 Female Macaca fascicularis were used for experiment. Drugs were administered according to crossover design. Test animals were operated to place an electrode to measure electroencephalogram, and were naturalized fully to test cage. The test animals were raised under light-dark cycle of 12 hour-light period and 12 hour-dark period (light period is from 6:00 to 18:00).
The dose of compound A was 0.3 mg/kg, and the dose of ritanserin was 1 mg/kg, and these were suspended in 0.5% methylcellulose solution to make dosage of 1 ml/kg. As control, 0.5% methylcellulose solution was used. Administration was conducted orally using transnasal catheter 5 to 10 minutes before extinction (17:50-17:55).
Measurement items were electroencephalogram, ocular movement and myogenic potential, and behavior was observed using infrared camera. Measurement was carried out for 12 hours from lights-out (18:00) to lights-on (6:00).
Data analysis was carried out for sleep latency and total sleep duration in the night.

Cat = test: Experiment 2: effect of combined use of compound A and gabapentin (GBP) on sleep wakefulness of cat (sleep electroencephalogram); type: in vivo; conditions: oral capsule, 8 hours after administration, compound A 0.1 mg/kg, gabapentin 10 mg/kg
Description: Used animals: 4 Siamese cats (purchased from Narc co.), 2 European shorthairs (purchased from Nisseiken co. Ltd.) and 1 mongrel cat (purchased from Narc co.) were used.
Under pentobarbital anesthesia, the following electrode and the like were implanted. An antibiotic was administered to prevent bacterial infection, and taming to cage for measuring electroencephalogram was started from 3 to 4 days after the operation. Measurement of electroencephalogram was carried out after 1 to 2 weeks of taming. • electrode for recording electroencephalogram in frontal lobe of cerebral cortex, frontal lobe and hippocampus • electrode for electrooculogram in orbit bone • stainless wire for recording electromyogram in dorsal cervical muscle […]
After being attached the electrodes for measurement from about 8:30 in the morning, the cats were placed in test box. Administration was conducted by 9:55 to 10:05 in the morning, and the sleep electroencephalogram for 8 hours after administration was measured.
Electroencephalogram data was obtained using Synafit 2500 of NEC Saneisha. […] In addition, the stage judged to be at slow-wave sleep was extracted, frequency analysis was carried out, and power spectrum during slow-wave sleep was calculated. […]

Compound	SWS (slow-wave sleep) duration in breakdown of sleep duration (Macaca fascicularis)	total sleep duration (Macaca fascicularis)	sleep latency of LS (Macaca fascicularis)	sleep latency of SWS (Macaca fascicularis)	total slow-wave sleep duration (Cat)
Cc1nc2sccn2c(=O)c1CCN1CCC(=C(c2ccc(F)cc2)c2ccc(F)cc2)CC1 [ritanserin, reference compound]	249 min	573 min	12.0 min	39.3 min	
CCC(=O)NCC[C@@H]1CCc2ccc3c(c21)CCO3 [compound A, (S)—N-[2-(1,6,7,8-tetrahydro-2H-indeno[5,4-b]furan-8-yl)ethyl]propionamide]	135 min	610 min	13.3 min	31.3 min	124.9 min
